One compound from US7582279B2, “Blood-pool carrier for lipophilic imaging agents” (The Board of Regents of the University of Michigan, priority 1994, dated 2009) can be followed below.

The subject of the experiment is VX2 tumors. In words: CT of hepatic VX2 tumors, co-administration study. The experiment is classed as in vivo, rabbits. The settings on record: VX2 rabbit. The text has this:
In a particularly advantageous embodiment of the invention, a hepatocyte-selective oil-in-water emulsion is co-administered with the blood-pool agent of the present invention. Liver-selective particulate agents (hepatocyte-selective or Kupffer cell-selective) clear rapidly from the blood and render the blood hypodense relative to surrounding liver tissue. It is very difficult to separate small tumors, which also appear as hypodense areas from small vasculature in the sub 5 mm size range. In order to compensate for this problem, DHOG-PEG (Example 1) and hepatocyte-selective DHOG-LE (Emulsion Example 6, non-radioactive form) were co-administered to rabbits bearing VX2 tumors.
Rabbits (mean weight 2.5 kg) were inoculated with VX2 carcinoma directly into the hepatic parenchyma to produce a total of 8 focal lesions (2-10 mm). Ten days later, the rabbits were scanned with multiple techniques including noncontrast, helical IV enhanced (600 mg I/kg iohexol), and 24 hours later using the iodinated microparticulate emulsion (200 mg I/kg). Tissue density measurements (HU) were made of liver, lesions, and blood (descending aorta). Tumor morphology was verified by gross pathologic examination.

Where [1] appears, read: iohexol 600 mg I/kg, emulsion 200 mg I/kg.

On to `CC(=O)N(CC(O)CO)c1c(I)c(C(=O)NCC(O)CO)c(I)c(C(=O)NCC(O)CO)c1I` (stereo not drawn) [iohexol], for which the “lesion detection (sensitivity), Lesions < 1 cm” value worked out at 49.3; the “lesion detection (sensitivity), Lesions > 1 cm” value is given as 97.6; the “lesion detection (sensitivity), Overall” value came to 67.6; the liver-to-lesion difference came to 28.8. Under setting [1], the “enhancement of liver tissue” value was “+66.8 HU” and the tumor enhancement result was “+40.1 HU”.
